# Data as given in US20230167073A1 (Teijin Pharma Limited, priority 2020, published 2023).
# Biological target: T1, Human TRPC6 (Homo sapiens, UniProt Q9Y210)
# T1 construct: expressed in transfected cells
# T1 sequence (Q9Y210 1-931): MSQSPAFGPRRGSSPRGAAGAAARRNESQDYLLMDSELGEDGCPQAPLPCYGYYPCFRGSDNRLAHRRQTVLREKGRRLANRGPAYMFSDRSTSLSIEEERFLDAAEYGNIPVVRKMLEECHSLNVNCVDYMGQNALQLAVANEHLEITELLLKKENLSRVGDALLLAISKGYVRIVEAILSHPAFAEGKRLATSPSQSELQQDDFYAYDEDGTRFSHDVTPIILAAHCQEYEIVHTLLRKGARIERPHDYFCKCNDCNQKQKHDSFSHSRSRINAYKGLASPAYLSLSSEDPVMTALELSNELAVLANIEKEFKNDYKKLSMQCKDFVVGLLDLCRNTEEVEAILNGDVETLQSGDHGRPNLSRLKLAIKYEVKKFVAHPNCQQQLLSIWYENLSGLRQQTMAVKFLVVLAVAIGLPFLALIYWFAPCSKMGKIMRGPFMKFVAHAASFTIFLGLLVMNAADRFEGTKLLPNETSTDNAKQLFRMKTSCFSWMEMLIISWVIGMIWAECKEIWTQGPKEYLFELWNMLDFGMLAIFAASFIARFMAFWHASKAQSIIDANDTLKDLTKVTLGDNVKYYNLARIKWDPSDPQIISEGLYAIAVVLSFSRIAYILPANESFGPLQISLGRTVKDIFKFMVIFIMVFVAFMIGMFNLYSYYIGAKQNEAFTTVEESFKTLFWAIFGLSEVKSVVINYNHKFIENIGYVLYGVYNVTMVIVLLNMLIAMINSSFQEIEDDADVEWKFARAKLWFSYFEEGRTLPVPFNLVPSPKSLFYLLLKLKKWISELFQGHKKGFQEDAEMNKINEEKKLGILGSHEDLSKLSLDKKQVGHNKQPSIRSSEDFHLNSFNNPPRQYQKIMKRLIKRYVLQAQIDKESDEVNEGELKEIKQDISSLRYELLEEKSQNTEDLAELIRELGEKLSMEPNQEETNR
# Experiment: Evaluation of TRPC6 channel inhibitory activity (1), FLIPR Calcium 5 Assay Kit, OAG stimulation (Compound Nos. 1-1293)
# Assay type: cell-based
# Settings: Human TRPC6 stably-expressing cells, OAG 30 μM, FLIPR Calcium 5 Assay Kit; read-out: Inhibitory activity (pIC50 class) (converted)
# In short: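 Readout is pIC50 from four-parameter logistic fitting of inhibition of the OAG-evoked (30 μM final) fluorescence calcium signal. Human TRPC6 stable cells are dye-loaded with probenecid, and compound is applied 20 min ahead of agonist.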
row,Compound,IC50 [µM]
1,"Cn1nc(C2CCC2)cc1Oc1cc(C#N)ccc1-c1ncc(C(O)CN)s1 (stereo not drawn) [Compound 238, 4-[5-(2-amino-1-hydroxyethyl)-1,3-thiazol-2-yl]-3-(5-cyclobutyl-2-methylpyrazol-3-yl)oxybenzonitrile]",< 0.01
2,"Cc1nc(Oc2cc(C#N)ccc2-c2cnn(C3CCNCC3)c2)cc(N2CCOCC2)n1 [Compound 239, 3-(2-methyl-6-morpholin-4-ylpyrimidin-4-yl)oxy-4-(1-piperidin-4-ylpyrazol-4-yl)benzonitrile]",> 1
3,"Cc1nc(Oc2cc(C#N)ccc2-c2ccc(C[C@H](N)C(N)=O)cc2)cc(-c2ccccc2)n1 [Compound 240, (2S)-2-amino-3-[4-[4-cyano-2-(2-methyl-6-phenylpyrimidin-4-yl)oxyphenyl]phenyl]propanamide]",0.01 to 1
4,"Cc1cc(Oc2cc(C#N)ccc2-n2cc(C(O)CN)cn2)cc(N2CCOCC2)n1 (stereo not drawn) [Compound 241, 4-[4-(2-amino-1-hydroxyethyl)pyrazol-1-yl]-3-(2-methyl-6-morpholin-4-ylpyridin-4-yl)oxybenzonitrile]",< 0.01
5,"COCc1nn(C)c(Oc2cc(C#N)ccc2-c2ccc(CCN)cc2)c1C [Compound 242, 4-[4-(2-aminoethyl)phenyl]-3-[5-(methoxymethyl)-2,4-dimethylpyrazol-3-yl]oxybenzonitrile]",> 1
6,"CC(C)Cc1nn(C)c(Oc2cc(C#N)ccc2-c2ccc(CCN)cc2)c1C(C)C [Compound 243, 4-[4-(2-aminoethyl)phenyl]-3-[2-methyl-5-(2-methylpropyl)-4-propan-2-ylpyrazol-3-yl]oxybenzonitrile]",> 1
7,"Cc1nc(Oc2cc(C#N)ccc2-n2cc([C@@H](O)CNC3COC3)cn2)cc(-c2ccccc2)n1 [Compound 244, 4-[4-[(1R)-1-hydroxy-2-(oxetan-3-ylamino)ethyl]pyrazol-1-yl]-3-(2-methyl-6-phenylpyrimidin-4-yl)oxybenzonitrile]",0.01 to 1
8,"Cn1nc(COC2CCCC2)cc1Oc1cc(C#N)ccc1-c1ccc(CCN)cn1 [Compound 245, 4-[5-(2-aminoethyl)pyridin-2-yl]-3-[5-(cyclopentyloxymethyl)-2-methylpyrazol-3-yl]oxybenzonitrile]",0.01 to 1
9,"N#Cc1ccc(-c2ncc(C(O)CN)s2)c(Oc2cnnc(-c3ccccc3)c2)c1 (stereo not drawn) [Compound 246, 4-[5-(2-amino-1-hydroxyethyl)-1,3-thiazol-2-yl]-3-(6-phenylpyridazin-4-yl)oxybenzonitrile]",< 0.01
10,"Cc1nc(Oc2cc(C#N)ccc2-c2ccc(CC(C)(C)N)cc2)cc(N2CCOCC2)n1 [Compound 247, 4-[4-(2-amino-2-methylpropyl)phenyl]-3-(2-methyl-6-morpholin-4-ylpyrimidin-4-yl)oxybenzonitrile]",< 0.01
11,"Cn1nc(-c2ccccc2)cc1Oc1cc(C#N)ccc1-c1ncc(C(O)CN)cn1 (stereo not drawn) [Compound 248, 4-[5-(2-amino-1-hydroxyethyl)pyrimidin-2-yl]-3-(2-methyl-5-phenylpyrazol-3-yl)oxybenzonitrile]",< 0.01
12,"Cn1nc(-c2ccccn2)cc1Oc1cc(C#N)ccc1-c1ccc(C(O)CN)cn1 (stereo not drawn) [Compound 249, 4-[5-(2-amino-1-hydroxyethyl)pyridin-2-yl]-3-(2-methyl-5-pyridin-2-ylpyrazol-3-yl)oxybenzonitrile]",< 0.01
13,"Cc1cc(Oc2cc(C#N)ccc2-c2ncc(CCN)cn2)cc(N2CCOCC2)n1 [Compound 250, 4-[5-(2-aminoethyl)pyrimidin-2-yl]-3-(2-methyl-6-morpholin-4-ylpyridin-4-yl)oxybenzonitrile]",< 0.01
14,"COC1CCN(c2cc(Oc3cc(C#N)ccc3-n3cc([C@@H](O)CN)cn3)nc(C)n2)CC1 [Compound 251, 4-[4-[(1R)-2-amino-1-hydroxyethyl]pyrazol-1-yl]-3-[6-(4-methoxypiperidin-1-yl)-2-methylpyrimidin-4-yl]oxybenzonitrile]",> 1
15,"Cc1nc(Oc2cc(C#N)ccc2-n2cc([C@@H](O)CN)cn2)cc(N2CCC(F)(F)C2)n1 [Compound 252, 4-[4-[(1R)-2-amino-1-hydroxyethyl]pyrazol-1-yl]-3-[6-(3,3-difluoropyrrolidin-1-yl)-2-methylpyrimidin-4-yl]oxybenzonitrile]",> 1
16,"Cc1nc(Oc2cc(C#N)ccc2-n2cc([C@@H](O)CN)cn2)cc(N2CCC(C(F)(F)F)CC2)n1 [Compound 253, 4-[4-[(1R)-2-amino-1-hydroxyethyl]pyrazol-1-yl]-3-[2-methyl-6-[4-(trifluoromethyl)piperidin-1-yl]pyrimidin-4-yl]oxybenzonitrile]",< 0.01
17,"Cc1cc(Oc2cc(C#N)ccc2-c2ccc(CCN)cn2)cc(N2CCCC2)n1 [Compound 254, 4-[5-(2-aminoethyl)pyridin-2-yl]-3-(2-methyl-6-pyrrolidin-1-ylpyridin-4-yl)oxybenzonitrile]",< 0.01
18,"CC(C)OCc1cc(Oc2cc(C#N)ccc2-c2ccc(CCN)cn2)n(C)n1 [Compound 255, 4-[5-(2-aminoethyl)pyridin-2-yl]-3-[2-methyl-5-(propan-2-yloxymethyl)pyrazol-3-yl]oxybenzonitrile]",0.01 to 1
19,"Cc1nc(Oc2cc(C#N)ccc2-n2cc([C@@H](O)CN)cn2)cc(N2CCC(F)(F)CC2)n1 [Compound 256, 4-[4-[(1R)-2-amino-1-hydroxyethyl]pyrazol-1-yl]-3-[6-(4,4-difluoropiperidin-1-yl)-2-methylpyrimidin-4-yl]oxybenzonitrile]",0.01 to 1
20,"Cc1nc(Oc2cc(C#N)ccc2-n2cc([C@@H](O)CN)cn2)cc(N2CCCC(F)(F)C2)n1 [Compound 257, 4-[4-[(1R)-2-amino-1-hydroxyethyl]pyrazol-1-yl]-3-[6-(3,3-difluoropiperidin-1-yl)-2-methylpyrimidin-4-yl]oxybenzonitrile]",0.01 to 1

# Further lines, results first:
row,IC50 [µM],Compound
1,< 0.01,"Cc1cc(Oc2cc(C#N)ccc2-c2ccc(CCN)cn2)cc(-c2ccccn2)n1 [Compound 258, 4-[5-(2-aminoethyl)pyridin-2-yl]-3-(2-methyl-6-pyridin-2-ylpyridin-4-yl)oxybenzonitrile]"
2,0.01 to 1,"Cc1nc(Oc2cc(C#N)ccc2-n2cc(CCN)cn2)cc(N2CCOCC2)n1 [Compound 259, 4-[4-(2-aminoethyl)pyrazol-1-yl]-3-(2-methyl-6-morpholin-4-ylpyrimidin-4-yl)oxybenzonitrile]"
3,< 0.01,"CCCc1cc(Oc2cc(C#N)ccc2-c2ncc(CCN)cn2)n(C)n1 [Compound 260, 4-[5-(2-aminoethyl)pyrimidin-2-yl]-3-(2-methyl-5-propylpyrazol-3-yl)oxybenzonitrile]"
4,< 0.01,"CC(C)c1cc(Oc2cc(C#N)ccc2-c2ncc(CCN)cn2)n(C)n1 [Compound 261, 4-[5-(2-Aminoethyl)pyrimidin-2-yl]-3-(2-methyl-5-propan-2-ylpyrazol-3-yl)oxybenzonitrile]"
5,< 0.01,"Cc1cc(Oc2cc(C#N)ccc2-c2ncc(CCN)cn2)cc(N2CCCC2)n1 [Compound 262, 4-[5-(2-aminoethyl)pyrimidin-2-yl]-3-(2-methyl-6-pyrrolidin-1-ylpyridin-4-yl)oxybenzonitrile]"
6,0.01 to 1,"Cc1nc(Oc2cc(C#N)ccc2-c2cnc(C(O)CN)s2)cc(-c2ccccc2)n1 (stereo not drawn) [Compound 263, 4-[2-(2-amino-1-hydroxyethyl)-1,3-thiazol-5-yl]-3-(2-methyl-6-phenylpyrimidin-4-yl)oxybenzonitrile]"
7,< 0.01,"Cn1nc(C(F)(F)F)cc1Oc1cc(C#N)ccc1-c1ccc(CCN)cn1 [Compound 264, 4-[5-(2-aminoethyl)pyridin-2-yl]-3-[2-methyl-5-(trifluoromethyl)pyrazol-3-yl]oxybenzonitrile]"
8,0.01 to 1,"Cc1nc(Oc2cc(C#N)ccc2-n2cc([C@@H](O)CN)cn2)cc(OC2CCCC2)n1 [Compound 265, 4-[4-[(1R)-2-amino-1-hydroxyethyl]pyrazol-1-yl]-3-(6-cyclopentyloxy-2-methylpyrimidin-4-yl)oxybenzonitrile]"
9,< 0.01,"Cc1nc(Oc2cc(C#N)ccc2-n2cc([C@@H](O)CN)cn2)cc(OC2CCCCC2)n1 [Compound 266, 4-[4-[(1R)-2-amino-1-hydroxyethyl]pyrazol-1-yl]-3-(6-cyclohexyloxy-2-methylpyrimidin-4-yl)oxybenzonitrile]"
10,< 0.01,"Cc1nc(OCC(C)C)cc(Oc2cc(C#N)ccc2-n2cc([C@@H](O)CN)cn2)n1 [Compound 267, 4-[4-[(1R)-2-amino-1-hydroxyethyl]pyrazol-1-yl]-3-[2-methyl-6-(2-methylpropoxy)pyrimidin-4-yl]oxybenzonitrile]"
